From patent US12371675B2, “Process and microorganism for synthesis of adipic acid from carboxylic acids” (THE GOVERNING COUNCIL OF THE UNIVERSITY OF TORONTO, priority 2015, dated 2025) come the findings set out here.

The target of data set [1] is T1, Clostridium acetobutylicum DSM 1731 2-enoate reductase EREDCA, SEQ ID NO: 2 (Clostridium acetobutylicum, UniProt Q97DV0).
T1 sequence (Q97DV0 1-664): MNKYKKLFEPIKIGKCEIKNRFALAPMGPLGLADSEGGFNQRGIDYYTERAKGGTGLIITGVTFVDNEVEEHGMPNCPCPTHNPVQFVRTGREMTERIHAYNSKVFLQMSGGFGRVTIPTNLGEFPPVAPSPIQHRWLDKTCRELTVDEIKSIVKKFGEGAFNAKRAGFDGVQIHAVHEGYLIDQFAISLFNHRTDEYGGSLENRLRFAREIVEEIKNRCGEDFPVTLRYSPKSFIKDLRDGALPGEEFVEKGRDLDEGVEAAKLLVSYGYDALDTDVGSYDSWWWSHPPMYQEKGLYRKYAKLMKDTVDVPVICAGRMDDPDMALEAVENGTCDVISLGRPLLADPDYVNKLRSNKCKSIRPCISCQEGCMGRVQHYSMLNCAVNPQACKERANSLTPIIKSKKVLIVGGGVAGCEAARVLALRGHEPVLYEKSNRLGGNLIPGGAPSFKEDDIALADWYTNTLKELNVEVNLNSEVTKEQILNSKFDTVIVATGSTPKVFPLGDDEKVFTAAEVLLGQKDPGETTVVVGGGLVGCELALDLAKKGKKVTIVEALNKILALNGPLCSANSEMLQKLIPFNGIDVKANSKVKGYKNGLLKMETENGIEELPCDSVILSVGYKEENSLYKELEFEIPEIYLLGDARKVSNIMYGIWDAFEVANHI
Put plainly: Kinetics of purified EREDCA, NADH oxidation at 340 nm, anaerobic. In kind it is biochemical. Conditions: 4 to 28 mM. The protocol: (§1) The C═C reducing activity of EREDs was examined. Enzyme activity of purified EREDs was measured spectrophotometrically in 96-well plates by following incubation for 3-5 min at 30° C. in the anaerobic chamber as described in M. Buhler, H. Simon, Hoppe-Seyler's Zeitschrift fur Physiologische Chemie 1982, 363, 609-625. Buffers and reagents were degassed and sparged with Ar. Reaction mixture contained potassium phosphate (100 mM and pH 7.0), NADH (0.5 mM), indicated substrates, and proteins (0.1-50 μg) in a final volume of 200 μL. Enzyme reactions were monitored by following the decrease in absorbance at 340 nm (ε340 nm=6,220/M·cm) due to oxidation of NADH to NAD+.
(§2) For in vitro biochemical characterization, enzyme activities of purified EREDs were measured with 2-hexenedioic acid, cis-cis-muconic acid, trans-trans muconic acid, trans-cinnamic acid, trans-2-methyl-2-butenoic acid, trans-2-butenoic acid, acrolein, 2-cyclohexen-1-one, and 3-methyl-2-cyclohexenone. […] [Feng, J. et al. Discovery and Characterization of BlsE, a Radical S-Adenosyl-L-methionine Decarboxylase Involved in the Blasticidin S Biosynthetic Pathway. PLoS ONE 8 (2013)].
(§3) To increase the dissolved substrate concentration, 2-hexenedioic acid was dissolved in a reaction mixture containing […] (final concentration) isopropanol, and kinetic constants of EREDBC and EREDCA were determined.

Data set [2] concerns the target Bacillus coagulans 36D1 2-enoate reductase EREDBC, SEQ ID NO: 1 (Heyndrickxia coagulans, UniProt A0AAN0T7I1). Briefly: Kinetics of purified EREDBC, NADH oxidation at 340 nm, anaerobic. In kind it is biochemical. Conditions: for saturation by substrate: anaerobic, aqueous buffer. The protocol: as §1, §2
Kinetic studies of purified EREDBC were performed using 2-hexenedioic acid, 2-cyclohexen-1-one, 3-methyl-2-cyclohexenone, and trans-cinnamic acid as substrates (FIG. 10).
as §3

For data set [3], the target named is Mycobacterium paratuberculosis carboxylate reductase MAP_1040c, SEQ ID NO: 38 (Mycobacterium avium, UniProt A0ACD7BNV2). Briefly: CAR kinetics, ATP/NADPH dependent carboxylic acid reduction.
Mycobacterium paratuberculosis carboxylate reductase MAP_1040c, SEQ ID NO: 38, sequence (A0ACD7BNV2 entry or part of it): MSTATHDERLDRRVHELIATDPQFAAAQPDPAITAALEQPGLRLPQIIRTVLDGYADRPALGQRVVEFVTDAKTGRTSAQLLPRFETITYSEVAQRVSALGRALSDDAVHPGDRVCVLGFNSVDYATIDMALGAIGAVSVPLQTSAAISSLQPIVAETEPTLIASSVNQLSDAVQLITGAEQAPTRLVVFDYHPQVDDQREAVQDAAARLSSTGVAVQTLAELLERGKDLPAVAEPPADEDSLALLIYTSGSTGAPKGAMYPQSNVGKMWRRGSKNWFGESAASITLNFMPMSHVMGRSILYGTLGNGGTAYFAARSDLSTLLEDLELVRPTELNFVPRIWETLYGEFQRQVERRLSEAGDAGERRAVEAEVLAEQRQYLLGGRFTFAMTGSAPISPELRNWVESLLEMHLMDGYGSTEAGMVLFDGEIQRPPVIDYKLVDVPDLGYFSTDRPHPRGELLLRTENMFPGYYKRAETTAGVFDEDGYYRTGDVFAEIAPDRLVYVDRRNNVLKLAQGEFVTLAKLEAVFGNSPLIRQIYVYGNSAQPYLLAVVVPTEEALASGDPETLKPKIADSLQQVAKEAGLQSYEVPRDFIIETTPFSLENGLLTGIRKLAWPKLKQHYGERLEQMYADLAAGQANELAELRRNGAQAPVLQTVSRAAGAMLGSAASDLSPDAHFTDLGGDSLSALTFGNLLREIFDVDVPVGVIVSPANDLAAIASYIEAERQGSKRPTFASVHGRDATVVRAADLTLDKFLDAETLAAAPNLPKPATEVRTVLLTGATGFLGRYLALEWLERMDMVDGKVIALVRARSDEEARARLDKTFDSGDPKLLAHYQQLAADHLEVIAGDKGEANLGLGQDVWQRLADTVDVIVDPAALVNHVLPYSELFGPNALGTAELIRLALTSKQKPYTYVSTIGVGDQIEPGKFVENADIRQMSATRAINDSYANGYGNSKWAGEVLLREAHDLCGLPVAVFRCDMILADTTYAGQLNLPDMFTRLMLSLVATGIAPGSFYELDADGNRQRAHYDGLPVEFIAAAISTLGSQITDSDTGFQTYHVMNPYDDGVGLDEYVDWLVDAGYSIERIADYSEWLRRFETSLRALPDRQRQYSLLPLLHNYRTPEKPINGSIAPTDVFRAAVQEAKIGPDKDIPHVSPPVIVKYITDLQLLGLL
Data set [4] relates to Rhodococcus jostii aldehyde reductase RHA1_ro05279, SEQ ID NO: 47. Briefly: AR kinetics, aldehyde reduction followed by NAD(P)H oxidation. In kind it is biochemical. An excerpt: 28 aldehyde reductases from different bacteria were cloned and overexpressed in E. coli. Enzymes purified using affinity chromatography on Ni-NTA resin were screened for reductase activity with adipaldehyde and butyraldehyde in presence of both NADPH and NADH (Table 5). Butyraldehyde was used as a substrate substitute for 4-oxo-butanal, which is not commercially available. Reactions were followed spectrophotometrically, by cofactor oxidation at 340 nm.
(§4) Enzyme activity of purified ARs was measured spectrophotometrically in 96-well plates Reaction mixtures contained 100 mM HEPES buffer (pH 7.5), 0.4 mM NADH/NADPH, 10 mM adipaldehyde or butylaldehyde, and proteins (10 μg for adipaldehyde screen, 2 μg for butyraldehyde screen) in a final volume of 200 μL Reaction mixture for adipaldehyde screening contained 1.8% DMSO. Enzyme reactions were monitored by following the decrease in absorbance at 340 nm (ε340 nm=6,220/M·cm) due to oxidation of NAD(P)H to NAD(P)+.
ARs RHA1_ro05279, PA1146, SC00229, PP_3370 were characterised for saturation with adipaldehyde, PP_3370, PSPTO_2097, RHA1_ro05279, SC00229, TM_0111, PA1146 were characterised for butyraldehyde saturation (Table 10). […] For both substrates maximal kcat/Km with minimal Km values was shown by AR PP 3370 from Pseudomonas putida.

The target in data set [5] is T2, Mycobacterium smegmatis carboxylate reductase MSMEG_5739, SEQ ID NO: 37 (Mycolicibacterium smegmatis, UniProt A0R484).
T2 sequence (A0R484 1-1173): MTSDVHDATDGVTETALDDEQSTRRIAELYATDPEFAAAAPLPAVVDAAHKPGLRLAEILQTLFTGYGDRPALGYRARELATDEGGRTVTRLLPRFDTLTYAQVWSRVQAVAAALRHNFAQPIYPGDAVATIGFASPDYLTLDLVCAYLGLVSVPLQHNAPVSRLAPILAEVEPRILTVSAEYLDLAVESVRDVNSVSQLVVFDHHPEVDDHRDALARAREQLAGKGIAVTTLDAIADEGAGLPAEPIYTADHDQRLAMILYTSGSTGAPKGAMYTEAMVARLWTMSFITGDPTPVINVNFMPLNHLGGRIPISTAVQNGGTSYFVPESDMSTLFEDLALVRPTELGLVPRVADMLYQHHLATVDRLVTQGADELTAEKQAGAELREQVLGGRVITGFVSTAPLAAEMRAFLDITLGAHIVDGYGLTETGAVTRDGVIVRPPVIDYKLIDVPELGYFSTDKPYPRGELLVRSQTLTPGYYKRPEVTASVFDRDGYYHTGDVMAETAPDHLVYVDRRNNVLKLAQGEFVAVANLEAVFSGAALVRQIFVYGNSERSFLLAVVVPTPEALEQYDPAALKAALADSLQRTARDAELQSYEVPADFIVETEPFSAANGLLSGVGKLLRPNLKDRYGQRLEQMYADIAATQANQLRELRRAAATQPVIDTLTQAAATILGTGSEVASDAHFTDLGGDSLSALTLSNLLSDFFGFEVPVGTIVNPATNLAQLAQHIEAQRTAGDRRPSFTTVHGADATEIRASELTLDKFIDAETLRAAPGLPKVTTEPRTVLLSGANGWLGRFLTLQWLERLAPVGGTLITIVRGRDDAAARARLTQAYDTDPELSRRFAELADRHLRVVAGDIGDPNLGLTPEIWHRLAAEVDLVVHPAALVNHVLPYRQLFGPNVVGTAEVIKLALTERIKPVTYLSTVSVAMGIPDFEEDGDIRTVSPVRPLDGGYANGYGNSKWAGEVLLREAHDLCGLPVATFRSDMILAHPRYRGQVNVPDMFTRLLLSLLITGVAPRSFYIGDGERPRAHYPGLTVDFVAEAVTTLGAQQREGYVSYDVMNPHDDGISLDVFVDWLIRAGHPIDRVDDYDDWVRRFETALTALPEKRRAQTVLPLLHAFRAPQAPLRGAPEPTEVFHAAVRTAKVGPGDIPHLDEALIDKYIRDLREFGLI
Briefly: CAR kinetics, ATP/NADPH dependent carboxylic acid reduction.

For data set [6], the target named is T3, Mycobacterium smegmatis carboxylate reductase MSMEG_2956, SEQ ID NO: 70 (Mycolicibacterium smegmatis, UniProt A0QWI7).
T3 sequence (A0QWI7 1-1168): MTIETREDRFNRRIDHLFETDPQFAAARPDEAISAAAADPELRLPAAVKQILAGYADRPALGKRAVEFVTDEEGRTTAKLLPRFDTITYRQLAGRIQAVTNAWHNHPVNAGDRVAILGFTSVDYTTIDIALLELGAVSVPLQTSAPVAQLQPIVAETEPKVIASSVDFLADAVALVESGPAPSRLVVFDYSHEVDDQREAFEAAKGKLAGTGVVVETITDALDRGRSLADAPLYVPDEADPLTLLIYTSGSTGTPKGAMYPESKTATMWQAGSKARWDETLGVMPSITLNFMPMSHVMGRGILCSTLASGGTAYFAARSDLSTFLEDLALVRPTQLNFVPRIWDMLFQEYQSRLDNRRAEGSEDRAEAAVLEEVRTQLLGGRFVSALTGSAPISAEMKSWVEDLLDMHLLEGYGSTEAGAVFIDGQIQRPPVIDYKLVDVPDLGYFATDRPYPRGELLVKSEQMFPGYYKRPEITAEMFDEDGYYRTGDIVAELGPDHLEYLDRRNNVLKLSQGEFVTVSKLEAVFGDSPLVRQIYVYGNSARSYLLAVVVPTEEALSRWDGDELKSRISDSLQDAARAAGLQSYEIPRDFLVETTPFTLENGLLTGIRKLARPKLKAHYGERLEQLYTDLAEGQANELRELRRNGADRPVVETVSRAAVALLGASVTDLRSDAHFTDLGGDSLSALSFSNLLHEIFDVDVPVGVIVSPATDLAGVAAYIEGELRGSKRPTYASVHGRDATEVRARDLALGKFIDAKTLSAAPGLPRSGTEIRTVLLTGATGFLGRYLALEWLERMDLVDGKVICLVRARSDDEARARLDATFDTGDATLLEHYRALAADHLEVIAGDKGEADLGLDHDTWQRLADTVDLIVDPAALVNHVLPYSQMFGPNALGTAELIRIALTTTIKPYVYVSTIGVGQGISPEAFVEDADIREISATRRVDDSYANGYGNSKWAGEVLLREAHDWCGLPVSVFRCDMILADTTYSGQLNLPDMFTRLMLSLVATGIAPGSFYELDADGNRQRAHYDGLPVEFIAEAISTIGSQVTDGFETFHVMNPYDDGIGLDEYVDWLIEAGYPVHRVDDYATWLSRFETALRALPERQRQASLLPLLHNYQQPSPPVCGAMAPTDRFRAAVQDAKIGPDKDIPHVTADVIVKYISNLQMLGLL
The data set is described as above.

Data set [7] is described as follows: AR reductase activity, NAD(P)H oxidation at 340 nm. Conditions: 10 mM, ND = no activity was detected. In kind it is biochemical. The protocol:
as §4

The nature of data set [8]: AT activity coupled with alanine and glutamate dehydrogenases. In kind it is biochemical. The following applies: 10 mM adipaldehyde, alanine and glutamate amino-donors; ND = no activity was detected.
Where [9] appears, read: adipaldehyde, cofactor NADH, 1,8% DMSO.

Bacillus coagulans 36D1 2-enoate reductase EREDBC, SEQ ID NO: 1, sequence (A0AAN0T7I1 entry or part of it): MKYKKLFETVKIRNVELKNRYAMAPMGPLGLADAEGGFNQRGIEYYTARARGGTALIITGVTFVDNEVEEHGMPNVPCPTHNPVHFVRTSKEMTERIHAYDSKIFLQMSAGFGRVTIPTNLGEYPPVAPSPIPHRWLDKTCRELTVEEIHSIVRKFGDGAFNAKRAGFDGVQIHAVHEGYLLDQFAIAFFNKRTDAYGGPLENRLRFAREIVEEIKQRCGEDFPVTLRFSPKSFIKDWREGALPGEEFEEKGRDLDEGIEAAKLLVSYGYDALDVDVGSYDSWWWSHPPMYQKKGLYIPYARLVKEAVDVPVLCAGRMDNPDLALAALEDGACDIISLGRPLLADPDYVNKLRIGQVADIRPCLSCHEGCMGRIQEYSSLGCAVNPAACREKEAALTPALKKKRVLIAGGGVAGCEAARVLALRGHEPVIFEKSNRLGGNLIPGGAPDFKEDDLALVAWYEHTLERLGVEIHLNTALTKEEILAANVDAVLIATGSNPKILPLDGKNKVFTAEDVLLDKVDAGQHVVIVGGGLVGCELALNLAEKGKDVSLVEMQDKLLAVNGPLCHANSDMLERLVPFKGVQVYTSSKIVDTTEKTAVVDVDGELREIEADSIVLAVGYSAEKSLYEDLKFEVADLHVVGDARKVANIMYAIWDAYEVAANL

Turning to `O=C(O)C=CCCC(=O)O` (racemic) [2-hexenedioic acid, 2-Hexenedioic acid], the saturation by substrate entry in data set [1] and in data set [2] was “no saturation” each time. Also, in data set [2] (2-hexenedioic acid in 0.25 mM isopropanol, 2.5 to 35 mM), the “fold higher catalytic efficiency (kcat/Km) of EREDBC compared to EREDCA” value is given as 14.6 fold.

With `O=C1C=CCCC1` [2-cyclohexen-1-one, 2-Cyclohexen-1-one], the saturation by substrate result in data set [2] is on record as “no saturation”.

`CC1=CC(=O)CCC1` [3-methyl-2-cyclohexenone, 3-Methyl-2-cyclohexenone]: in data set [2], the saturation by substrate result is recorded as “no saturation”.

`O=C(O)CCCCCO` [6-hydroxyhexanoic acid]: in data set [3], the kcat (as a rule, the maximal rate divided by the concentration of active sites) turned out to be 2.91 ± 0.19 s⁻¹ and the kcat/Km (in general, the turnover number divided by the Michaelis constant) turned out to be 41.58 ± 2.77 M⁻¹ s⁻¹.

Regarding `O=CCCCCC=O` [adipaldehyde], in data set [4] (setting [9]), the Michaelis-Menten constant (Km) (usually the substrate concentration at which the rate is half of its maximum) was 6.89 ± 1.38 mM, the catalytic constant (kcat) was 3.67 ± 0.31 s⁻¹ and the specificity constant (kcat/Km) result is on record as “(5.33 ± 0.45) × ×10^2 M^−1 · s^−1”.

For `O=C(O)CCCCC(=O)O` [adipic acid], in data set [5], the Km turned out to be 87.5 ± 16.2 mM and the kcat came out at 2.40 ± 0.26 s⁻¹. Further, in data set [6], the kcat came to 2.73 ± 0.20 s⁻¹ and the kcat/Km was found to be 25.2 ± 1.83 M⁻¹ s⁻¹.

In the case of `CCCC=O` [butyraldehyde], in data set [4] (butyraldehyde, cofactor NADH), the Km amounted to 14.3 ± 0.88 mM, the kcat came out at 25.77 ± 0.88 s⁻¹ and the kcat/Km entry is on record as “(1.80 ± 0.06) × ×10^3 M^−1 · s^−1”. Further, in data set [4] (butyraldehyde, cofactor NADPH), the Km was determined as 1.53 ± 0.39 mM, the kcat worked out at 1.28 ± 0.09 s⁻¹ and the catalytic efficiency (kcat/Km) result is recorded as “(8.37 ± 0.59) × ×10^2 M^−1 · s^−1”.

Regarding “RHA1_ro05279: aldehyde reductase (AR) from Rhodococcus jostii”, the “Activity [U/mg protein] Adipaldehyde” value in data set [7] (1.8% DMSO) is 0.721 ± 0.026 U/mg protein. For the same molecule, the “Activity [U/mg protein] Butyraldehyde” value in data set [7] was determined as 0.905 ± 0.834 U/mg protein.

Consider “Rsp3534: aminotransferase (AT) from Rhodobacter sphaeroides”, for which the “Adipaldehyde 10 mM U/mg” value in data set [8] was 0.034 ± 0.005 U/mg.
